Results on two compounds are retold here after patent US7476684B2, “Compounds for the treatment of neurological, psychiatric or pain disorders” (AstraZeneca AB, priority 2005, dated 2009).

Data set [1] can be described thus: Intrinsic dissolution rate, low-volume rotating disc method. It counts as physicochemical. The conditions noted are these: salt made at 1 g scale from ethanol; disc 0.07 cm^2, 500 rpm, 50 mL USP Phosphate buffer pH 6.8 at 37° C. The protocol:
The salt manufactured at 1 g scale from ethanol was further investigated for its intrinsic dissolution rate and compared to the free base of 4-(5-{(1R)-1-[5-(3-chlorophenyl)isoxazol-3-yl]ethoxy}-4-methyl-4H-1,2,4-triazol-3-yl)pyridine. […] Dissolution rates of the base and salt were measured with a low-volume rotating disc method. Discs were compressed from pure compound and centrically mounted in a disc holder with an exposed area of 0.07 cm^2. The disc holder rotated at 500 rpm immersed in 50 mL USP Phosphate buffer pH 6.8 at 37° C. The compound was analyzed UV-Online by a Spectrophotometer with a flow cell and a peristaltic pump with continuous circulation.

Data set [2] is described as follows: Moisture sorption / deliquescence of the salt versus relative humidity. It is filed as physicochemical.

Regarding `C[C@@H](Oc1nnc(-c2ccncc2)n1C)c1cc(-c2cccc(Cl)c2)on1.Cl` [Example 17, 4-(5-{(1R)-1-[5-(3chlorophenyl)isoxazol-3-yl]ethoxy}-4-methyl-4H-1,2,4-triazol-3-yl)pyridine hydrochloride], the “intrinsic dissolution rate as compared to the free base” value in data set [1] is 1000 times. In addition, the “increased moisture sorption at relative humidity” value in data set [2] (crystalline hydrochloride salt) is recorded as 90-95 % RH.
Take `C[C@@H](Oc1nnc(-c2ccncc2)n1C)c1cc(-c2cccc(Cl)c2)on1.O=S(=O)(O)O` [Example 18, 4-(5-{(1R)-1-[5-(3-chlorophenyl)isoxazol-3-yl]ethoxy}-4-methyl-4H-1,2,4-triazol-3-yl)pyridine sulphate]: the “deliquesce at relative humidity” value was 60-70 % relative humidity in data set [2] (first batch, oiled salt recrystallised in ethanol) and 70-80 % RH in data set [2] (second batch, salt manufactured from ethanol at 68° C.).
